Source: patent publication US20240158418A1 (C4 Therapeutics, Inc., priority 2021, published 2024)
Read-outs that look alike come from different tables or passages of the source.

Legend:
Format in all cases: cell-based
[1] = tested on: BaF3 cells expressing EGFR L858R-L792H; assay: Ba/F3 EGFR cell viability (CellTiter-Glo), L858R-L792H; settings: Mus musculus, read-out: CTGlo (GI50)
Description: (§1) RPMI 1640 media, cell culture flasks, and 384-well microplates were purchased from VWR (Radnor, PA, USA). Fetal bovine serum (FBS) was purchased from Life Technologies (Carlsbad, CA, USA) and CellTiter-Glo® was purchased from Promega (Madison, WI, USA). The Ba/F3 parental cell line was purchased from CrownBio (Santa Clara, CA). BaF3 cell lines ectopically expressing the EGFR mutations L858R, L858R-T790M, L858R-C797S, and L858R-T790M-C797S were purchased from CrownBio and EGFR mutations L858R-L718Q, L858R-T790M-L718Q, L858R-L792H, and L858R-T790M-L792H, were purchased from Signosis (Santa Clara, CA).
(§2) Cell viability was assessed based on the quantification of ATP using the CellTiter-Glo® assay (Promega, Madison, WI, USA). To determine the effect of compounds on cell viability, all Ba/F3 cell lines were plated at a cell density of 2000 cells/well in 384-well plates using RPMI 1640+10% FBS and treated with compounds of interest using a 10-point half-log dilution series in duplicate for 72 hours, with the highest dose set at […]. CellTiter-Glo® reagent was then added and luminescence signals were measured using an EnVision™ Multimode plate reader (Perkin Elmer, Santa Clara, CA). For data normalization, cells untreated with the test compounds at Time=72 hours were set to 100% (equivalent to maximal cell growth after 72 hours); cells untreated with the test compounds at Time=0 hours were set to 0% (equivalent to cytostasis); and media-only wells were set to −100% (equivalent to complete cytotoxicity). % Viability was determined by normalizing the signal with positive and DMSO treated negative controls on the same microtiter plate. The half-maximal inhibition of cell growth (GI50) is computed from where the fitted curve crosses 50% while the half-maximal lethal dose (LD50) is computed from where the fitted curve crosses −50%.

[2] = tested on: BaF3 cells expressing EGFR L858R-T790M-C797S; assay: Ba/F3 EGFR cell viability (CellTiter-Glo), L858R-T790M-C797S; settings: Mus musculus, read-out: CTGlo (GI50)
Description: as §1, §2

[3] = tested on: BaF3 cells expressing EGFR L858R-L718Q; assay: Ba/F3 EGFR cell viability (CellTiter-Glo), L858R-L718Q; settings: Mus musculus, read-out: CTGlo (GI50)
Description: as §1, §2

[4] = tested on: BaF3 cells expressing EGFR L858R-T790M-L792H; assay: Ba/F3 EGFR cell viability (CellTiter-Glo), L858R-T790M-L792H; settings: Mus musculus, read-out: CTGlo (GI50)
Description: as §1, §2

pY1068 EGFR L858R-T790M = biological target: T1, pY1068 EGFR L858R-T790M (Homo sapiens, UniProt P00533, L858R/T790M); assay: Phospho-EGFR (pY1068) inhibition HTRF, NCI-H1975; settings: 6 hours, read-out: pEGFR IC50
T1 construct: NCI-H1975 (harboring EGFR heterozygous L858R-T790M mutations); host or cells: NCI-H1975
T1 sequence (P00533 25-1210 T790M/L858R): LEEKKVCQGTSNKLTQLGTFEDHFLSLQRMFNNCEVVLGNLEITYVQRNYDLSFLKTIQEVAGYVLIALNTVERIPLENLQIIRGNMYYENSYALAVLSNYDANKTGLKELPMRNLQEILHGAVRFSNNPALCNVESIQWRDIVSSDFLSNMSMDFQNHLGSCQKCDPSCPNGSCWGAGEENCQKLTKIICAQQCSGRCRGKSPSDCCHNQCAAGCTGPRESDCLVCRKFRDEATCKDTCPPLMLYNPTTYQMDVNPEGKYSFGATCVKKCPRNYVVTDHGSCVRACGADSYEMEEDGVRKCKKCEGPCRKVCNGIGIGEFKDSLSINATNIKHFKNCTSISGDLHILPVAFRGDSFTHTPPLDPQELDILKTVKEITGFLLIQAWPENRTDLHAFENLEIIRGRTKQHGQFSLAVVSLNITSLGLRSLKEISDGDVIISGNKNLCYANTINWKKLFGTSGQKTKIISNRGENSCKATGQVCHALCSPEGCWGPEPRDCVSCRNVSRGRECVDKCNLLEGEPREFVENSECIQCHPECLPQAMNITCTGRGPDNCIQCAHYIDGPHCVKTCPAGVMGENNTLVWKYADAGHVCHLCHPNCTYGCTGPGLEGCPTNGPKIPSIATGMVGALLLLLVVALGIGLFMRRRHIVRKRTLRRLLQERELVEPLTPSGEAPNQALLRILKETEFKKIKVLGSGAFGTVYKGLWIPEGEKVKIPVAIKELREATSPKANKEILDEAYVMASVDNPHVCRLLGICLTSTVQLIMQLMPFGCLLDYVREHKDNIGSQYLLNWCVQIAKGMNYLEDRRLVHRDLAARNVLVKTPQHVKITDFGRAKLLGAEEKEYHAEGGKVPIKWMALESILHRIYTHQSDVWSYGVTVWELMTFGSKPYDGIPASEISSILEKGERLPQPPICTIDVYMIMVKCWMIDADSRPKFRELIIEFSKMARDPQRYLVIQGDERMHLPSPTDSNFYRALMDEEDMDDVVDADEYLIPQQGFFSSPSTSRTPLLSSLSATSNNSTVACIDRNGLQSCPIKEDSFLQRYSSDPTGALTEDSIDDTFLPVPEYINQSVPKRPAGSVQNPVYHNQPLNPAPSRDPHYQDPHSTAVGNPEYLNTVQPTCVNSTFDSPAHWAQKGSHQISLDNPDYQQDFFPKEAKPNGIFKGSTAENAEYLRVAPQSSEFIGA
Description: (§3) NCI-H1975 (harboring EGFR heterozygous L858R-T790M mutations) and NCI-H3255 (harboring EGFR heterozygous L858R mutation) were purchased from ATCC and NCI, respectively. NCI-H1975+CS (harboring EGFR heterozygous L858R-T790M-C797S mutations) was generated using CRISPR technology to introduce the additional C797S mutation by Horizon Discovery. A431 (harboring EGFR wildtype) was purchased from ATCC. RPMI 1640 no-phenol red medium and fetal bovine serum (FBS) were purchased from Gibco (Grand Island, NY, USA). Cell culture flasks and 384-well microplates were acquired from VWR (Radnor, PA, USA). Phosphorylated (pY1068) EGFR and Total EGFR (using L858R-specific detection antibody and pan-EGFR antibody for EGFR mutant cell lines and EGFR wild-type cell lines, respectively) HTRF assay kits were purchased from Cisbio (Bedford, MA, USA).
(§4) Degradation of EGFR protein containing L858R mutation or wild-type was determined based on quantification of FRET signal using a Total EGFR (L858R-specific or pan-EGFR detecting) HTRF assay kit. Phospho-EGFR (pEGFR) inhibition was determined based on quantification of FRET signal using a pY1068 EGFR HTRF assay kit. In separate assay plates, test compounds were added to the 384-well plate from a top concentration of 10 μM with 11 points, half log titration in duplicates. For each assay, 12.5 uL of cells suspended in assay media (RPMI 1640 no-phenol red medium+10% FBS) at cell densities indicated for each cell line in Table 8 below were dispensed using a multi-channel pipette to 384-well low volume white HTRF microplates containing a duplicate concentration range of test compounds and DMSO controls. The plates were kept at 37° C. with 5% CO2 for 6 hours and then incubated with either phospho EGFR or Total EGFR HTRF detection antibodies according to the cell line and EGFR mutant being assayed. Cells treated in the absence of the test compound were the negative control. Positive control was set by wells containing all reagents but no cells. FRET signal was acquired on EnVision™ Multilabel Reader (PerkinElmer, Santa Clara, CA, USA). Compound concentration that achieves 50% degradation and inhibition was reported as DC50 and IC50, respectively.

[5] = tested on: BaF3 cells expressing EGFR L858R-T790M-L718Q; assay: Ba/F3 EGFR cell viability (CellTiter-Glo), L858R-T790M-L718Q; settings: Mus musculus, read-out: CTGlo (GI50)
Description: as §1, §2

EGFR L858R-T790M = biological target: T2, EGFR L858R-T790M (Homo sapiens, UniProt P00533, L858R/T790M); assay: EGFR degradation, Total EGFR (L858R-specific) HTRF, NCI-H1975; settings: 6 hours
T2 construct: NCI-H1975 (harboring EGFR heterozygous L858R-T790M mutations); host or cells: NCI-H1975
T2 sequence (P00533 25-1210 T790M/L858R): as above
How it was run: (§5)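 HTRF read-outs: pY1068 phospho-EGFR for IC50; total EGFR (pan-EGFR in A431, L858R-specific in mutant lines) for DC50. Compounds were titrated 11 points, half-log, from 10 μM in duplicate onto cells in 10% FBS RPMI, incubated 6 h at 37°C.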

[6] = biological target: T3, pY1068 EGFR L858R-T790M-C797S (Homo sapiens, UniProt P00533, C797S/L858R/T790M); assay: Phospho-EGFR (pY1068) inhibition HTRF, NCI-H1975+CS; settings: 6 hours, read-out: pEGFR IC50
T3 construct: generated using CRISPR technology to introduce the additional C797S mutation by Horizon Discovery; host or cells: NCI-H1975+CS (CRISPR knock-in of C797S)
Description: as §3, §4

EGFR L858R = EGFR L858R (Homo sapiens, UniProt P00533, L858R); assay: EGFR degradation, Total EGFR (L858R-specific) HTRF, NCI-H3255; design: NCI-H3255 (harboring EGFR heterozygous L858R mutation); host or cells: NCI-H3255; settings: 6 hours
Chain of EGFR L858R (P00533 25-1210 L858R): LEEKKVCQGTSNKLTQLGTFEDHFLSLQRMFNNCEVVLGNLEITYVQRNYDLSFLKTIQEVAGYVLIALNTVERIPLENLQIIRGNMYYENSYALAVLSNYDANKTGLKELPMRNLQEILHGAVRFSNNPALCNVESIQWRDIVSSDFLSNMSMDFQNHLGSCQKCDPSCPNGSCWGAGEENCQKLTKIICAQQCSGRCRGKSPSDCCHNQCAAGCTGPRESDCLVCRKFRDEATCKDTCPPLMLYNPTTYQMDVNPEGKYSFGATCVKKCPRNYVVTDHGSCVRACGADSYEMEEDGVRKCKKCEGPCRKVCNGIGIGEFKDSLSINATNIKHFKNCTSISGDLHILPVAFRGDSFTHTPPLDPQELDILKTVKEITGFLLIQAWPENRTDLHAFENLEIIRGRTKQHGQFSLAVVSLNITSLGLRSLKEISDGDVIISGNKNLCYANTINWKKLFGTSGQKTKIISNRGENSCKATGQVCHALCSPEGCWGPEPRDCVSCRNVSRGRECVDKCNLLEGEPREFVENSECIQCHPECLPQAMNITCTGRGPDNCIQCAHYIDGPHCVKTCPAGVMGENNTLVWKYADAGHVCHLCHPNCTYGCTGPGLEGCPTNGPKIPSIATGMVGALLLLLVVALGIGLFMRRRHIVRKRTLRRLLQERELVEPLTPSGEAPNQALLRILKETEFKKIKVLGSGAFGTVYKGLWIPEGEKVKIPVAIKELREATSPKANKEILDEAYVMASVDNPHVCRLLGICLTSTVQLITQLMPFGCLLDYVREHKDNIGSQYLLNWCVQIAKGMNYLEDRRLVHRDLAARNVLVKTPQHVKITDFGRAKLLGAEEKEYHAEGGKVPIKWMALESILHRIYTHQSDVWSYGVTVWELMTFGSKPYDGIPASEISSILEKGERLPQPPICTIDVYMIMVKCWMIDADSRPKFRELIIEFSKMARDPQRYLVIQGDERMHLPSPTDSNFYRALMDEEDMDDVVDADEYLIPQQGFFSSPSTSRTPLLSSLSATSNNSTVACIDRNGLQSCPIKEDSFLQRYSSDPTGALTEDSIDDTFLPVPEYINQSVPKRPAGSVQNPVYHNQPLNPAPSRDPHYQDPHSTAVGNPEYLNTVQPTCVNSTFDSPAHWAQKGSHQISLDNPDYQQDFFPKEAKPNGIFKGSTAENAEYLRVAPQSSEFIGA
How it was run: as §5

EGFR L858R-T790M-C797S = biological target: T4, EGFR L858R-T790M-C797S (Homo sapiens, UniProt P00533, C797S/L858R/T790M); assay: EGFR degradation, Total EGFR (L858R-specific) HTRF, NCI-H1975+CS; settings: 6 hours
T4 construct: generated using CRISPR technology to introduce the additional C797S mutation by Horizon Discovery; host or cells: NCI-H1975+CS (CRISPR knock-in of C797S)
T4 sequence (P00533 25-1210 T790M/C797S/L858R): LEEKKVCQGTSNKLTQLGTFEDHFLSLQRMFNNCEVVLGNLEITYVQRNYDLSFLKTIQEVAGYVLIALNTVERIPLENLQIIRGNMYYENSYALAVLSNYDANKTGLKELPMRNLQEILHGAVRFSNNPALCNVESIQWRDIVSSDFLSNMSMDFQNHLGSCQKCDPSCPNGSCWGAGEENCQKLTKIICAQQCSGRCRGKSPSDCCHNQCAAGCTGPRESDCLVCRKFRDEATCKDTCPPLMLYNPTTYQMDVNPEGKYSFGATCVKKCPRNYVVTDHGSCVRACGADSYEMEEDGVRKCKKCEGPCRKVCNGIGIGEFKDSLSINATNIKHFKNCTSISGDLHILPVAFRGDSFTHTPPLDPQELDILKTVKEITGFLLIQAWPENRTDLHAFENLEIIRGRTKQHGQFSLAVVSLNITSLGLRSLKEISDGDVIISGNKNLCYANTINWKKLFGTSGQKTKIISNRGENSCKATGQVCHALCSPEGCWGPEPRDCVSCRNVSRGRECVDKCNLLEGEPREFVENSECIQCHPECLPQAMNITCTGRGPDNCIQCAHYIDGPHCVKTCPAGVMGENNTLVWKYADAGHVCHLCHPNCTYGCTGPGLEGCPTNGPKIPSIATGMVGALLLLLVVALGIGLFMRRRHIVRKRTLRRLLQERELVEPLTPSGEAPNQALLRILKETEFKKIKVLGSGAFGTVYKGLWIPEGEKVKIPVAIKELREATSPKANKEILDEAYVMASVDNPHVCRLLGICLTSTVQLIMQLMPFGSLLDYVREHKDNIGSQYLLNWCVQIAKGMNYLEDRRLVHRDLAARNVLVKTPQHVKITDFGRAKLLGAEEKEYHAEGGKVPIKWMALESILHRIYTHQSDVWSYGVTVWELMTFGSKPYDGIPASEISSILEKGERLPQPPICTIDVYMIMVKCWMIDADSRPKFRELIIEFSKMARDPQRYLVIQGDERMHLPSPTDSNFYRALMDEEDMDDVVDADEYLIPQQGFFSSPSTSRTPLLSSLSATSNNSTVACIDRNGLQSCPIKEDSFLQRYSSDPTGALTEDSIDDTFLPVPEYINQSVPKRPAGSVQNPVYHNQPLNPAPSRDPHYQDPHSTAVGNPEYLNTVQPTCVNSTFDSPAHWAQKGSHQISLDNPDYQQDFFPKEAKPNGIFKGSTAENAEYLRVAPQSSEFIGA
How it was run: as §5

pY1068 EGFR L858R = biological target: T5, pY1068 EGFR L858R (Homo sapiens, UniProt P00533, L858R); assay: Phospho-EGFR (pY1068) inhibition HTRF, NCI-H3255; settings: 6 hours, read-out: pEGFR IC50
T5 construct: NCI-H3255 (harboring EGFR heterozygous L858R mutation); host or cells: NCI-H3255
Description: as §3, §4

[7] = H1975 (L858R-T790M), read-out: tEGFR DC50
[8] = Table 9A, NCI-H1975 cells, Total EGFR HTRF, read-out: H1975 EGFR DC50
[9] = Table 9A, NCI-H3255 cells, Total EGFR HTRF, read-out: H3255 EGFR DC50
[10] = Table 9A, NCI-H1975+CS cells, Total EGFR HTRF, read-out: H1975+ CS EGFR DC50

| IC50 (pY1068 EGFR L858R-T790M) [nM] | DC50 (EGFR L858R-T790M; [7]) [nM] | DC50 (EGFR L858R-T790M; [8]) [nM] | DC50 (EGFR L858R; [9]) [nM] | DC50 (EGFR L858R-T790M-C797S; [10]) [nM] | Compound | further results |
| --- | --- | --- | --- | --- | --- | --- |
| 30 | 24 | < 50 | – | – | O=C1CC[C@H](Nc2ccc(N3CCC(O)(CC(=O)N4CCC5(CC4)CN(c4ccc(-c6cc(F)c7c(c6)C(=O)N(C(C(=O)Nc6nccs6)c6ncn8c6CCC8)C7)cc4)C5)CC3)c(F)c2)C(=O)N1 (stereo partly drawn) [Compound 9, 2-(6,7-dihydro-5H-pyrrolo[1,2-c]imidazol-1-yl)-2-[6-[4-[7-[2-[1-[4-[[(3S)-2,6-dioxo-3-piperidyl]amino]-2-fluoro-phenyl]-4-hydroxy-4-piperidyl]acetyl]-2,7-diazaspiro[3.5]nonan-2-yl]phenyl]-4-fluoro-1-oxo-isoindolin-2-yl]-N-thiazol-2-yl-acetamide] | GI50 [1]: 10 nM; GI50 [2]: 16 nM; GI50 [3]: 23 nM; GI50 [4]: 33 nM; GI50 [5]: 82 nM |
| 15 | 15 | < 50 | – | – | O=C1CCC(Nc2ccc(C3CCN(CC(=O)N4CC5(C4)CN(c4ccc(-c6cc(F)c7c(c6)C(=O)N(C(C(=O)Nc6nccs6)c6ncn8c6CCC8)C7)cc4)C5)CC3(F)F)cc2)C(=O)N1 (single isomer, unassigned) [Compound 4, 2-(6,7-dihydro-5H-pyrrolo[1,2-c]imidazol-1-yl)-2-(6-(4-(6-(2-(4-(4-((2,6-dioxopiperidin-3-yl)amino)phenyl)-3,3-difluoropiperidin-1-yl)acetyl)-2,6-diazaspiro[3.3]heptan-2-yl)phenyl)-4-fluoro-1-oxoisoindolin-2-yl)-N-(thiazol-2-yl)acetamide] | IC50 [6]: 22 nM; DC50 (EGFR L858R; H3255 (L858R), read-out: tEGFR DC50): 17 nM; DC50 (EGFR L858R-T790M-C797S; H1975 + CS (L858R-T790M-C797S), read-out: tEGFR DC50): 33 nM; IC50 (pY1068 EGFR L858R): 16 nM |
| – | – | < 50 | < 50 | < 50 | O=C1CC[C@H](Nc2ccc(C3CCN(C(=O)CN4CCN(Cc5ccc(-c6cc(F)c7c(c6)C(=O)N(C(C(=O)Nc6nccs6)c6ncn8c6CCC8)C7)cc5)CC4)CC3)c(F)c2)C(=O)N1 (stereo partly drawn) [Compound 59, 2-(6,7-dihydro-5H-pyrrolo[1,2-c]imidazol-1-yl)-2-[6-[4-[[4-[2-[4-[4-[[(3S)-2,6-dioxo-3-piperidyl]amino]-2-fluoro-phenyl]-1-piperidyl]-2-oxo-ethyl]piperazin-1-yl]methyl]phenyl]-4-fluoro-1-oxo-isoindolin-2-yl]-N-thiazol-2-yl-acetamide] | – |
| – | – | 50 to 150 | < 50 | < 50 | O=C1CCC(Nc2ccc(C3CCN(CC(=O)N4CCN(c5ccc(-c6cc(F)c7c(c6)C(=O)N(C(C(=O)Nc6ccccn6)c6ncn8c6CCC8)C7)cc5)CC4)CC3)c(F)c2)C(=O)N1 (stereo not drawn) [Compound 20, 2-(6,7-dihydro-5H-pyrrolo[1,2-c]imidazol-1-yl)-2-[6-[4-[4-[2-[4-[4-[(2,6-dioxo-3-piperidyl)amino]-2-fluoro-phenyl]-1-piperidyl]acetyl]piperazin-1-yl]phenyl]-4-fluoro-1-oxo-isoindolin-2-yl]-N-(2-pyridyl)acetamide] | – |
| – | – | < 50 | < 50 | < 50 | O=C1CCC(Nc2ccc(C3CCN(CC(=O)N4CCN(c5ccc(-c6cc(F)c7c(c6)C(=O)N(C(C(=O)Nc6nccs6)c6ncn8c6CCC8)C7)cc5)CC4)CC3)c(C(F)F)c2)C(=O)N1 (stereo not drawn) [Compound 15, 2-[6-[4-[4-[2-[4-[2-(difluoromethyl)-4-[(2,6-dioxo-3-piperidyl)amino]phenyl]-1-piperidyl]acetyl]piperazin-1-yl]phenyl]-4-fluoro-1-oxo-isoindolin-2-yl]-2-(6,7-dihydro-5H-pyrrolo[1,2-c]imidazol-1-yl)-N-thiazol-2-yl-acetamide] | – |
| – | – | 50 to 150 | < 50 | < 50 | O=C1CCC(Nc2ccc(C3CCN(CC(=O)N4CCC(Oc5ccc(-c6cc(F)c7c(c6)C(=O)N(C(C(=O)Nc6nccs6)c6ncn8c6CCC8)C7)cc5)CC4)CC3)cc2F)C(=O)N1 (stereo not drawn) [Compound 34, 2-(6,7-dihydro-5H-pyrrolo[1,2-c]imidazol-1-yl)-2-(6-(4-((1-(2-(4-(4-((2,6-dioxopiperidin-3-yl)amino)-3-fluorophenyl)piperidin-1-yl)acetyl)piperidin-4-yl)oxy)phenyl)-4-fluoro-1-oxoisoindolin-2-yl)-N-(thiazol-2-yl)acetamide] | – |
| – | – | < 50 | < 50 | < 50 | O=C1CC[C@H](Nc2ccc(C3CCN(CC(=O)N4CCN(Cc5ccc(-c6cc(F)c7c(c6)C(=O)N(C(C(=O)Nc6nccs6)c6ncn8c6CCC8)C7)cc5)CC4)CC3)c(F)c2)C(=O)N1 (stereo partly drawn) [Compound 58, 2-(6,7-dihydro-5H-pyrrolo[1,2-c]imidazol-1-yl)-2-[6-[4-[[4-[2-[4-[4-[[(3S)-2,6-dioxo-3-piperidyl]amino]-2-fluoro-phenyl]-1-piperidyl]acetyl]piperazin-1-yl]methyl]phenyl]-4-fluoro-1-oxo-isoindolin-2-yl]-N-thiazol-2-yl-acetamide] | – |
| 20 | 15 | < 50 | – | – | O=C1CC[C@H](Nc2ccc(N3CCC(O)(CC(=O)N4CC5(CCN(c6ccc(-c7cc(F)c8c(c7)C(=O)N(C(C(=O)Nc7nccs7)c7ncn9c7CCC9)C8)cc6)CC5)C4)CC3)c(F)c2)C(=O)N1 (stereo partly drawn) [Compound 12] | – |
